Assay results from patent US10350308B2, “Molecular probes for imaging myelin” (priority 2010, dated 2019).
“Also recorded” adds a separate entry of the source.

Assays:
myelin [1] = assay: In vivo NIRF imaging in hypermyelinated mouse model; parameters: species or system Plp-Akt-DD mice and wild-type mice; details: 0.1 mg/kg i.v.
Protocol: The in vivo Near-infrared fluorescence imaging was carried out using Xenogen IVIS Imaging System 200, (Caliper Life Science, Inc., Hopkinton, Mass.). To avoid the influence of the autofluorescence and light scattering due to the fur, all the mice were shaved before experiment. After the i.v. injection of CNIR 0.1 mg/kg, the mouse was anesthetized utilizing isoflurane gas, the mouse was positioned on the center of the stage (working temperature 20-40° C.). The Near-infrared images were acquired by Back-thinned, back-illuminated grade 1 CCD, which is thermoelectrically cooled to −90° C. ensuring low dark current and low noise. The fluorescent filter set for excitation was 705-780 nm, for emission was 810-885 nm. The experiments were controlled with Living Image 3.1 (Caliper Life Science. Inc., Hopkinton, Mass.). Lens: f/2. Field of view: 6.5 cm×6.5 cm. Imaging Pixels: 2048×2048. Exposure time: 0.5 s for all the images. The near-infrared images were evaluated by Living Image 3.1 (Caliper Life Science. Inc., Hopkinton, Mass.). All the images used photon as the unit for the quantification, and the images were shown as overlaid photograph with fluorescence. Statistical analysis was performed using two-tailed t-test with GraphPad Prism 5, (GraphPad Software, Inc., La Jolla, Calif.). CNIR (0.1 mg/kg) and vehicle (0.05% DMSO/PBS (V/V)) was first administered to the hypermyelinated mouse model through intravenous injected in the tail vein. The fluorescence signals were recorded at 2, 4, 6, 8, 10, 15, 20, 25, 30, 40, 50, 60, 70, 80, 90, 100, 110 and 120 min post injection. To exclude the influence of autofluorescence from the mouse tissues and impact from the solution, the vehicle (0.05% DMSO/PBS (V/V)) also injected and fluorescence was recorded at 2, 4, 6, 8, 10, 15, 20, 25, 30, 40, 50, 60, 70, 80, 90, 100, 110 and 120 min to compare with the CNIR solution (images not shown). […]

myelin [2] = assay: In vivo NIRF imaging in shiverer mouse model; parameters: species or system shiverer mice and wild-type mice; details: for fluorescent intensities in the brain, shiverer versus wild-type mice / time of peak fluorescent signal in shiverer mice / average radiance in wild-type mice relative to shiverer mice: 0.1 mg/kg i.v.; for time of peak fluorescent signal in shiverer mice: brain; for average radiance in wild-type mice relative to shiverer mice: at 30 minutes, after deducting vehicle signals
Protocol: We then evaluated the pharmacokinetic profiles of CNIR in 3-month old female shiverer mice (n=3) and age-matched wild-type mice (n=2). The in vivo NIR imaging was conducted using the same dosage as in the hypermyelinated mouse model. The fluorescent signals were recorded at 2, 4, 6, 8, 10, 15, 20, 25, 30, 40, 50, 60, 70, 80, 90, 100, 110 and 120 min after i.v. injection of CNIR and the vehicle (0.05% DMSO/PBS (V/V)).

[3] = Brain permeability by co-registration of fluorescent and X-ray images; type: in vivo; details: 0.1 mg/kg i.v., 20 minutes post injection, wild-type mice
Protocol: The fur of the mouse was shaved to avoid the problem of autofluorescence. 20 minutes after the i.v. injection of CNIR 0.1 mg/kg, the mouse was anesthetized utilizing isoflurane gas. The mouse was positioned on the center of the platen and imaged via fluorescence (ex 760 em 790) and X-ray. Vertical Resolution: 885 ppi, horizontal Resolution: 885 ppi. To determine the brain permeability of CNIR, we administered CNIR to wild-type mice through intravenous injection in tail vein. At 20 minutes post injection of CNIR (0.1 mg/kg), both X-ray and fluorescent images of the mouse brain were acquired using KODAK In-Vivo Multispectral System FX (FIG. 3). Co-registration of high quality X-ray image and fluorescent image confirmed that the strong fluorescence was indeed emitted from inside the brain.

[4] = Fluorescent excitation and emission spectra; type: physicochemical; details: 100 nM in DMSO
Protocol: The fluorescent excitation and emission spectrum is recorded using Varian fluorescent spectroscopy at the concentration of […] in DMSO.
The excitation and emission spectra of CNP were recorded using Cary Eclipse Fluorescence Spectrophotometers (Varian, Inc.; Palo Alto, Calif.) at 25° C. in DMSO, at a concentration of 100 nM. The excitation and emission slits were 5 nm, the scan rate was 600 nm/min, and the data interval was 1 nm.

myelin sheaths = assay: In vitro fluorescent tissue staining of mouse brain sections; type: binding; details: compared with MBP antibody
[5] = tested on: LPC induced demyelination lesion; assay: CNP staining of rat brain sections after imaging in the focal demyelination model; type: binding; details: LPC-rats versus saline-rats, compared with Black-Gold II
Protocol: Focal demyelination of adult rat brain. Sprague Dawley female rats (Harlan Laboratory, Indianapolis, Ind.), 12 weeks of age, were used for this study. Animal surgery and care was performed in accordance with the Institutional Animal Care and Use Committee of Case Western Reserve University Animals were anesthetized using a mixture of ketamine hydrochloride (64.2 mg/kg), xylazine hydrochloride (12.9 mg/kg), and acepromazine (12.9 mg/kg) and positioned in a stereotaxic frame (Stoelting). […]
Fresh frozen section: Mice or rats were deeply anesthetized with isoflurane and perfused via the ascending aorta with PBS followed by 4% paraformaldehyde in PBS. […] Tissue from the midline of the brain containing the whole corpus callosum was selected for staining Stained sections were covered with fluorescence mounting medium (Vectashield; Vector Laboratories, Burlingame, Calif.) and stored at 4° C. for future analysis.
Fresh frozen sections with 20 μm thickness were incubated in 0.1% Triton-100 in 1×PBS for 10 min, which was followed by incubation in a solution of CNP (1 mM) in 1% DMSO/1×PBS for 30 min at room temperature. The fresh frozen sections were then washed three times for 5 min each with 1×PBS before cover-slipping with fluorescence mounting medium (Vectashield, Vector laboratories). […]

MBP = assay: CNP staining followed by MBP antibody staining in the same brain tissue sections; type: binding, mouse; details: cerebellum, frontal cortex, caudate putamen; CNP 1 mM
Protocol: After incubation with 3% normal goat serum in 1×PBS for 60 min, the fresh frozen sections were immunostained overnight at 4° C. with purified SMI99 mouse monoclonal anti-MBP (Covance, Inc. Princeton, N.J.) 1:500 dilution in 3% normal goat serum in 1×PBS, followed by one hour incubation at room temperature with Fluorescein (FITC) AffiniPure Goat Anti-Mouse IgG (H=L) (Jackson ImmunoResearch Laboratories, Inc. West Grove, Pa.) 1:500 dilution, then rinsed in 1×PBS (2×5′). The stained sections were covered with fluorescence mounting medium (Vectashield, Vector laboratories). Images of the stained mouse brain sections were acquired on a Leica DM5000 inverted microscope (L5 filter, BP 527/30).
Fresh frozen sections with 20 μm thickness were incubated in 0.1% Triton-100 in 1×PBS for 10 min, which was followed by incubation in a solution of CNP (1 mM) in 1% DMSO/1×PBS for 30 min at room temperature. The fresh frozen sections were then washed three times for 5 min each with 1×PBS before cover-slipping with fluorescence mounting medium (Vectashield, Vector laboratories). Images of the stained mouse brain sections were acquired on a Leica DMI5000 inverted microscope (Y5 filter, BP 700/75).
To determine the exact binding sites of CNP, we compared both CNP and MBP staining conducted in the same brain tissue sections. […]

myelin [6] = assay: In vivo microPET-MR imaging in focal demyelination rat model
Protocol: Focal demyelination of adult rat brain. Sprague Dawley female rats (Harlan Laboratory, Indianapolis, Ind.), 12 weeks of age, were used for this study. Animal surgery and care was performed in accordance with the Institutional Animal Care and Use Committee of Case Western Reserve University Animals were anesthetized using a mixture of ketamine hydrochloride (64.2 mg/kg), xylazine hydrochloride (12.9 mg/kg), and acepromazine (12.9 mg/kg) and positioned in a stereotaxic frame (Stoelting). A small incision was made in the scalp, and the corpus callosum was targeted using the following stereotaxic coordinates, relative to bregma: anterior-posterior, 0.0 mm; medial-lateral, 2.0; and dorsal-ventral, 3.4. A small hole was drilled in the skull, and a 26 S gauge needle attached to a 10 μl Hamilton Syringe was lowered into the corpus callosum according to the dorsal-ventral coordinate. A microinjector pump (Stoelting) controlled the infusion of 6 μl of lysolethicin (lysophosphatidyl chorine) or saline at a rate of 0.25 μl/min, after which the needle was left in place for 2 min to prevent liquid reflux out of the brain parenchyma. The incision was then closed using 5-0 Ethicon sutures, and the animals were allowed to recover on a heating pad. The imaging of demyelination of the rats and vehicles were performed 5 d after surgery. The rats were kept alive.
Animals were placed in a Concord R4 microPET scanner (Knoxyille, Tenn.) under anesthesia. After a 10 min transmission scan with a Co-57 source, 7.4 MBq of [11C]DAS were administered to each animal through a tail vein injection, which was immediately followed by dynamic acquisition for up to 90 min. A 2-D filtered back projection (FBP) algorithm was used for image reconstruction with a 256×256 pixel resolution per transverse slice. A total of 63 transverse slices were reconstructed with the field of view covering the head of the animals. Decay correction, attenuation correction and scatter correction were all performed during the image histogram and reconstruction processes.
All MR imaging experiments were performed on a Bruker Biospec 7.0T/30 cm MRI and Spectroscopy scanner (Bruker Biospin, Billerica, Mass.). The animal's head was positioned in a 72-mm volume ID cylindrical transceiver coil. […]
Coregistration of MRI and PET images, PET and CT images were conducted by using the MATLAB-based program COMKAT (Compartmental Model Kinetic Analysis Tool). […] After creating uniform images from the PET and MRI images, VOI (Volume of interest) and ROI (Region of interest) were defined and used to measure the radioactivity concentration in the corpus callosums of both hypomyelinated and wild type mice. […]
The radioactivity was decay-corrected and normalized by the body weight of the mice and the amount of [^11C] […]

[7] = corpus callosum, 0-60 min microPET

CCN1\C(=C/C=C/C=C/C=C/c2sc3ccccc3[n+]2CC)Sc2ccccc21.[I-] [CNIR, 3,3′Diethylthiatricarbocyanine iodide]
fluorescent radiance / average fluorescent intensity in Plp-Akt-DD mice compared with wild-type mice (myelin [1]; 2-120 min post injection): much stronger; also recorded: higher | clearance in wild-type control mice (myelin [1]; brain fluorescence): fast clearance | clearance in hypermyelinated (Plp-Akt-DD) mice (myelin [1]; brain fluorescence, compared to WT): relatively slower clearance | fluorescent intensities in the brain, shiverer versus wild-type mice (myelin [2]): significant different | time of peak fluorescent signal in shiverer mice (myelin [2]): 2 min | average radiance in wild-type mice relative to shiverer mice (myelin [2]): eightfold greater | brain permeability [3]: can readily penetrate the intact blood-brain barrier | maximal emission wavelength [4]: 797 nm | maximal excitation wavelength [4]: 782 nm | labeling of myelin sheaths in wild-type mouse brain sections (myelin sheaths; 1 μM, free floating sections): selectively labeled intact myelin sheaths

COc1cccc(CN2\C(=C/C=C/C=C/C=C/c3sc4ccccc4[n+]3Cc3cccc(OC)c3)Sc3ccccc32)c1.[Br-] [CNP]
fluorescent intensities in the brain, shiverer versus wild-type mice (myelin [2]): significantly different | time of peak fluorescent signal in shiverer mice (myelin [2]): 5 min | average radiance in wild-type mice relative to shiverer mice (myelin [2]): four fold greater | brain entry (myelin [2]; summary statement at the head of Example 1): readily enters the brain | detection of demyelination lesion in brain sections [5]: can detect the LPC induced demyelination lesion | antibody staining of MBP after CNP staining of the same section (MBP): significantly blocked | labeling of myelin sheaths in wild-type mouse brain sections (myelin sheaths; 100 μM, fresh frozen sections): bind specifically to myelin sheaths | labeling of myelin sheaths in wild-type and shiverer mouse brain sections (myelin sheaths; 1 mM, fresh frozen sections): selectively labeled intact myelin sheaths

COc1cccc(C[n+]2c(/C=C/C=C/C=C/C=C3/Sc4ccccc4N3Cc3cccc(O[11CH3])c3)sc3ccccc32)c1 [[^11C] CNP]
uptake in control rat brain compared with demyelinated rat brain (myelin [6]; corpus callosum ROI, 60 min microPET scan): significantly higher | average SUV in demyelinated region, lower than control myelinated region (myelin [6]; [7]): 40% | average SUV in demyelinated region, lower than remyelinated region (myelin [6]; [7]): 20% | localization in brain (myelin [6]; white matter versus gray matter): preferentially localizes in the myelin-rich white matter
